Results taken from ChEMBL document CHEMBL1201862, “PubChem BioAssay data set” (2004).
Activity calls are given as the source filed them.

Tests used:
[1] = HEp-2 cell cytotoxicity, dose response, cytotoxicity control for RSV inhibitor project, HTS (AID 2410); format: functional; settings: human respiratory syncytial virus
[2] = tested on: Streptococcus sp. 'group A'; assay: growth inhibition of control SK(-) GAS strain, dose response, counter-screen for streptokinase expression inhibitor project, luminescence, kanamycin, BacTiterGlo, confirmation (AID 1900); format: functional, organism-based
[3] = target: T1, Streptokinase A (Streptococcus pyogenes serotype M1, UniProt P10520); assay: S. pyogenes streptokinase expression inhibitors, potency, dose response, plasminogen activation absorbance, OD405 (AID 1914); format: functional, Streptococcus pyogenes M1 GAS;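 note: secreted streptokinase activity via plasminogen activation per viability signal from cell pellet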
T1 sequence (P10520 whole entry): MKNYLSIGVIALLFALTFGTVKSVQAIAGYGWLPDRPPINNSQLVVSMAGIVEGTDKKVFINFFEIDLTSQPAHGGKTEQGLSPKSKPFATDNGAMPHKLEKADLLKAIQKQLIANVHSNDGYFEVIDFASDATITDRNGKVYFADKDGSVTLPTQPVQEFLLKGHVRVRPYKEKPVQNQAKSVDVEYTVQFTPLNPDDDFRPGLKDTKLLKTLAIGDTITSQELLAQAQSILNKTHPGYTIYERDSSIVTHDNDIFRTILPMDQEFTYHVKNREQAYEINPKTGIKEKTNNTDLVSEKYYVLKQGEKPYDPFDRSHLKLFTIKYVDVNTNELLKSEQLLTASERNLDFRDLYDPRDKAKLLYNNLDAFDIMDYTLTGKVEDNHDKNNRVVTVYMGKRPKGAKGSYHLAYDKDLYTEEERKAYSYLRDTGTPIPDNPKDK

[4] = tested on: Streptococcus; assay: Group A Streptococcus viability loss, dose response, counter-screen for streptokinase expression inhibitor project, luminescence, BacTiterGlo (AID 1915); format: functional, organism-based;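 note: potency for reduction of bacterial viability or growth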
[5] = tested on: Vero; assay: cells; format: functional; settings: Chlorocebus sabaeus
[6] = target: Eukaryotic translation initiation factor 4E (Mus musculus, UniProt P63073); assay: eIF4E–eIF4G protein interaction inhibitors, dose response, biochemical, TR-FRET (AID 855); format: functional;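 note: potency for disrupting eIF4E binding to eIF4GI seen as loss of FRET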
[7] = target: T2, Cytochrome P450 1A2 (Homo sapiens, UniProt P05177);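 note: PubChem cytochrome P450 panel assay, CYP1A2 panel member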
T2 sequence (P05177 whole entry): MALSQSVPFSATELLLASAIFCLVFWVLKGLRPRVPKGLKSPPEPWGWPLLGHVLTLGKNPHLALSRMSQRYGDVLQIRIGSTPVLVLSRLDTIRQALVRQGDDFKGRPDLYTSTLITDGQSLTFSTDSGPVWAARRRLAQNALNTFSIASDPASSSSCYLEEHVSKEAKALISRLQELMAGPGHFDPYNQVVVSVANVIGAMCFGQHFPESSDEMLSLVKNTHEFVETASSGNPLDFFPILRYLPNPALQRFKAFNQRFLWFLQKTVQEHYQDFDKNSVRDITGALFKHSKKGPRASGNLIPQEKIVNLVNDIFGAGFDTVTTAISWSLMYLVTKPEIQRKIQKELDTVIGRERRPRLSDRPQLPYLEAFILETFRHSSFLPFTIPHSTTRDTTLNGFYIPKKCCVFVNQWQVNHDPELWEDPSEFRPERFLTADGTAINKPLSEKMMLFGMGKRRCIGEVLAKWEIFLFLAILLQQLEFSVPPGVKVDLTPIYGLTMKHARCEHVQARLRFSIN

[8] = target: Cytochrome P450 2C9 (Homo sapiens, UniProt P11712)
[9] = target: T3, Caspase-3 (Homo sapiens, UniProt P42574); format: functional;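 note: Dose-response selectivity test against caspase-3 for candidate inhibitors of sentrin-specific proteases (SENPs)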
T3 sequence (P42574 whole entry): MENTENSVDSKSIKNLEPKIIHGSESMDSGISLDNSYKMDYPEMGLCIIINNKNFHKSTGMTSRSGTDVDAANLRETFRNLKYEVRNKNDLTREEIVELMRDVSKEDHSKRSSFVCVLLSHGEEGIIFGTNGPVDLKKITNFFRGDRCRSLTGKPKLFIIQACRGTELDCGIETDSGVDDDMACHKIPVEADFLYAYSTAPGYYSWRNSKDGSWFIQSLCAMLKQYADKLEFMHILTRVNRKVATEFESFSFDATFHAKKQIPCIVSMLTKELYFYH

[10] = target: T4, Sentrin-specific protease 7 (Homo sapiens, UniProt Q9BQF6); format: functional;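 note: Luminescence-based dose-response confirmation of ultra-high-throughput screening hits, measuring inhibition of SENP7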
T4 sequence (Q9BQF6 whole entry): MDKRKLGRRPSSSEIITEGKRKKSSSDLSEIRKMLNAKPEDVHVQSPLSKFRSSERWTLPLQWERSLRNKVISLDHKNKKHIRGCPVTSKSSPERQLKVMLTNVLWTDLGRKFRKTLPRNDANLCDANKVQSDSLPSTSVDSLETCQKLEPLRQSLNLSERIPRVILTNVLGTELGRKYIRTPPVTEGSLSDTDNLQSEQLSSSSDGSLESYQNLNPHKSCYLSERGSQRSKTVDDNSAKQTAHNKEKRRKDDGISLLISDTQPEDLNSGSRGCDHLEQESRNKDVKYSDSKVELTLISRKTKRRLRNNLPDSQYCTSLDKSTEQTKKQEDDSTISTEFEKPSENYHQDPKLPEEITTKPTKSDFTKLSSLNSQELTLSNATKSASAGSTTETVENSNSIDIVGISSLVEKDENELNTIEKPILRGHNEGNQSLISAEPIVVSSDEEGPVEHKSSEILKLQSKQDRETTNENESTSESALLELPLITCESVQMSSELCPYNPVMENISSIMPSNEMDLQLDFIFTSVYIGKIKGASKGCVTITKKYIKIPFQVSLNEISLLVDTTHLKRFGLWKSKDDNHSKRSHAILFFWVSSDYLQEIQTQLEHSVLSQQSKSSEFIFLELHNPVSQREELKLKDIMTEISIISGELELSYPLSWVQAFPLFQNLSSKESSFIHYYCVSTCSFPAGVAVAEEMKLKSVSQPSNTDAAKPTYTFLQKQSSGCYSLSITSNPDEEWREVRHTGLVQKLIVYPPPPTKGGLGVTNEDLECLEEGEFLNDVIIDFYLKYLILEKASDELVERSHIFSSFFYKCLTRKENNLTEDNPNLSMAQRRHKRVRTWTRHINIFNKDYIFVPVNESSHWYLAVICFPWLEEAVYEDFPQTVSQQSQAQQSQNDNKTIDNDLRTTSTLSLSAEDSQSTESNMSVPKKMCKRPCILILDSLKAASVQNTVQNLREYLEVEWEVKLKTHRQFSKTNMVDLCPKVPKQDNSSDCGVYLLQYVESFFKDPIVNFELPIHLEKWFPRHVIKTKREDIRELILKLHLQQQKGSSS

[11] = target: T5, Sentrin-specific protease 6 (Homo sapiens, UniProt Q9GZR1); format: functional;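 note: Luminescence-based dose-response confirmatory assay of SENP6 inhibition, following up an ultra-high-throughput screen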
T5 sequence (Q9GZR1 whole entry): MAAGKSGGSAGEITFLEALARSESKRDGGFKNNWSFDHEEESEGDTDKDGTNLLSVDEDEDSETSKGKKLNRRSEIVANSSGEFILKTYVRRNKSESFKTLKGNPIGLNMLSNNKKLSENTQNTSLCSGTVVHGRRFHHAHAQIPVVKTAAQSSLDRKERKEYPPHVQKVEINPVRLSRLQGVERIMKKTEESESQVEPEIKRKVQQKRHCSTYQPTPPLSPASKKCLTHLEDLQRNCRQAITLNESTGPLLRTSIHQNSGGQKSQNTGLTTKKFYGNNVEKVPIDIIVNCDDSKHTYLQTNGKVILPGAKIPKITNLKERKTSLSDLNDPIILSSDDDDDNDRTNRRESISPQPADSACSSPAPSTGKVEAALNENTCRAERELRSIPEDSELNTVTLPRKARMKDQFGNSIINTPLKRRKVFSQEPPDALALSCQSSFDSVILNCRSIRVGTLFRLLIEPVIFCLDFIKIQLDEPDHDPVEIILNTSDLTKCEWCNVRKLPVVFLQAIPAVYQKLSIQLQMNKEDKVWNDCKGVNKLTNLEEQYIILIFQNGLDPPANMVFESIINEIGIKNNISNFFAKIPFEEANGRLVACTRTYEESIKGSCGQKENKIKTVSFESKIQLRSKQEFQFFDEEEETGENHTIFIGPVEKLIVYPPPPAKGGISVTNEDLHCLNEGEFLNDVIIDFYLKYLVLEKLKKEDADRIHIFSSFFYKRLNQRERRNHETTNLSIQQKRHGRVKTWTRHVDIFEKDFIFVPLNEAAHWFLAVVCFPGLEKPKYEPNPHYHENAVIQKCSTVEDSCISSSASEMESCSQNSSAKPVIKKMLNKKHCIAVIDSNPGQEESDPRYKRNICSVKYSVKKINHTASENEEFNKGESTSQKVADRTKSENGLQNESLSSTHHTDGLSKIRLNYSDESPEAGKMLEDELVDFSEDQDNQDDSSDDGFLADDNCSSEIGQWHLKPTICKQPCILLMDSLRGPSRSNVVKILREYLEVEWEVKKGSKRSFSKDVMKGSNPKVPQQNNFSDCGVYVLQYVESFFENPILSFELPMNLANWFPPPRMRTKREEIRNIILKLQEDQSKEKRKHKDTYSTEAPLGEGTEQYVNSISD

[12] = target: T6, Sentrin-specific protease 8 (Homo sapiens, UniProt Q96LD8); format: functional;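 note: luminescence read-out of SENP8 inhibition, dose-response confirmation following an ultra-high-throughput screen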
T6 sequence (Q96LD8 whole entry): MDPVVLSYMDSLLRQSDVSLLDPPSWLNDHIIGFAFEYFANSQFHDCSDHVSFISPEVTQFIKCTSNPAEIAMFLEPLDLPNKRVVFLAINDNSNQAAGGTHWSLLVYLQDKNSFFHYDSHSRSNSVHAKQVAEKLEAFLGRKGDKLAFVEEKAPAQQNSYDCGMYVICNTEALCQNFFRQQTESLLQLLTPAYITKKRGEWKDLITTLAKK

[13] = target: T7, Polyadenylate-binding protein 1 (Homo sapiens, UniProt P11940); assay: PABP1 MLLE–PAM2 interaction inhibitors, dose response, miRNA deadenylation inhibitor project, biochemical, fluorescence polarization, Cy5-PAM2 peptide, secondary (AID 602260); format: functional; settings: read-out: IC50_Mean
[14] = target: T7, Polyadenylate-binding protein 1; assay: PABP1 MLLE–PAM2 binding inhibitor potency, dose response, biochemical, fluorescence polarization, FITC-PAM2 peptide (AID 602259); format: functional; settings: read-out: IC50_Mean
[15] = target: Cytochrome P450 2D6 (Homo sapiens, UniProt P10635);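 note: CYP2D6 member of a cytochrome P450 panel assay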
[16] = target: T8, Calpain-2 catalytic subunit (Sus scrofa, UniProt P43367); assay: pig calpain II inhibitor potency, dose response, biochemical, fluorogenic peptide substrate (AID 1420); format: functional
T8 sequence (P43367 whole entry): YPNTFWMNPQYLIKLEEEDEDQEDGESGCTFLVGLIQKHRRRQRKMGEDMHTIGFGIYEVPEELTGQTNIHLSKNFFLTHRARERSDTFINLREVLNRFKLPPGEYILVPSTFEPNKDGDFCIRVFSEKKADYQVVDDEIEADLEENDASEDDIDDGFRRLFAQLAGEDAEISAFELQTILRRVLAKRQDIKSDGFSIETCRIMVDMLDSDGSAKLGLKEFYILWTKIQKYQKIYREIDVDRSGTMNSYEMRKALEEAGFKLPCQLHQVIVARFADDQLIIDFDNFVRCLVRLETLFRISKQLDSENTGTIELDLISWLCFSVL

[17] = target: Genome polyprotein (dengue virus type 2, UniProt P29990); assay: Dengue-2 NS5 methyltransferase inhibitors, primary screen, biochemical, confirmation dose response (AID 588689); format: functional
[18] = intracellular Trypanosoma cruzi inhibitors in host cells – cell-based, plate reader, cherry-pick samples, set 3, dose response (AID 651818); format: functional;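 note: compounds incubated with infected cells for about four days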

Genome polyprotein, sequence (P29990 2492-3391 limits assumed): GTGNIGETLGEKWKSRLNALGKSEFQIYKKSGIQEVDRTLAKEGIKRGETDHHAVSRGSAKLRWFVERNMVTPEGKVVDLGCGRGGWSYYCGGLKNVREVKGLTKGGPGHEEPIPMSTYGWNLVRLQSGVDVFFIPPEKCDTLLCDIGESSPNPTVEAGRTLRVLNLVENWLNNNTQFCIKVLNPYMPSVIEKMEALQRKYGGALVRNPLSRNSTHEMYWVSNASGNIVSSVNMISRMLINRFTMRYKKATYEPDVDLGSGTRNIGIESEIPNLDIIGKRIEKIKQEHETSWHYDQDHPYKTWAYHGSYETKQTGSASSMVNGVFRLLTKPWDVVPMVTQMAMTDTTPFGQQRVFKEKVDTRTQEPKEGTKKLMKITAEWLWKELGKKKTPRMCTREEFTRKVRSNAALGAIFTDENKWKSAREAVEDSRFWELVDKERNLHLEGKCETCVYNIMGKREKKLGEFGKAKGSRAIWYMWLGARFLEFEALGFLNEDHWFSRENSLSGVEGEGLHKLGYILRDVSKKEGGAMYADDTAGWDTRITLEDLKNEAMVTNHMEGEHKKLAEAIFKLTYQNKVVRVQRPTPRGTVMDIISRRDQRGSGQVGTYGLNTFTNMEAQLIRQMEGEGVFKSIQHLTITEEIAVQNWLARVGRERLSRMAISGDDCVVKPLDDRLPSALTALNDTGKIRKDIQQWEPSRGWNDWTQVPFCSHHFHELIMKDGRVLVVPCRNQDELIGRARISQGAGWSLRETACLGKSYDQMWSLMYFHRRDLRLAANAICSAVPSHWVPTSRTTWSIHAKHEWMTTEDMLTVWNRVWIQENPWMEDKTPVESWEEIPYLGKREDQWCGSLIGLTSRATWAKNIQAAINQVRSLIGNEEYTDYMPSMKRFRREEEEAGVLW
Cytochrome P450 2C9, sequence (P11712 whole entry): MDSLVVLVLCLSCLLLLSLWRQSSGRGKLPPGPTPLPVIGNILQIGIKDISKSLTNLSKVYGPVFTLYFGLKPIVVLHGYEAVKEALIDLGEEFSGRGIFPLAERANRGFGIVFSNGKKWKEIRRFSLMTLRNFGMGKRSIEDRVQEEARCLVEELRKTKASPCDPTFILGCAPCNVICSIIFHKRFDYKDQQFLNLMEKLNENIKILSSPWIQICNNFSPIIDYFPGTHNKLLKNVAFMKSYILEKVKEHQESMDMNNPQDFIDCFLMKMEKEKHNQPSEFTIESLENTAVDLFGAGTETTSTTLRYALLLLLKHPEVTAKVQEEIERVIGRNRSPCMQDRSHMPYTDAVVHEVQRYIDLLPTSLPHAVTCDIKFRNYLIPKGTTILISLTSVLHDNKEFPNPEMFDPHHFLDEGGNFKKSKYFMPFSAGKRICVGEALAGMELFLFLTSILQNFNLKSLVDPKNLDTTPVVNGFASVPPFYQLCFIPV
T7 sequence (P11940 whole entry): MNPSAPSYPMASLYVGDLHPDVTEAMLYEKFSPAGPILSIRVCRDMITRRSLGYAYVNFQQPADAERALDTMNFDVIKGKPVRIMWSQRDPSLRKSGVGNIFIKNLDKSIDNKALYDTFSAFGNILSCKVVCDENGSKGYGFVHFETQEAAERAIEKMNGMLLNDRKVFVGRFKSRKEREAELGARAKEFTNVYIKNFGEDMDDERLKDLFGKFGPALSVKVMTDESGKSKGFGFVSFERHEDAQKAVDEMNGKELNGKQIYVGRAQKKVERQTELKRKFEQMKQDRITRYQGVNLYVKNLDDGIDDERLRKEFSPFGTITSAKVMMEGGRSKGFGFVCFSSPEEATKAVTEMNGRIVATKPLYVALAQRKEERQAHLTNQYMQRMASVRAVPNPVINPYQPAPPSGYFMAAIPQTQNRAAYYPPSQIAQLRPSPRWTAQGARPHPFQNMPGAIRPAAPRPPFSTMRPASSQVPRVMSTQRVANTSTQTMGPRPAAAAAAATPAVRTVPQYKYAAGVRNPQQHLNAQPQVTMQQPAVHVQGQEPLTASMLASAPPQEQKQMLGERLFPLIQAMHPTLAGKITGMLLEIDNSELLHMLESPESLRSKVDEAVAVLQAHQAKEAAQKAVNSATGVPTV
Eukaryotic translation initiation factor 4E, sequence (P63073 whole entry): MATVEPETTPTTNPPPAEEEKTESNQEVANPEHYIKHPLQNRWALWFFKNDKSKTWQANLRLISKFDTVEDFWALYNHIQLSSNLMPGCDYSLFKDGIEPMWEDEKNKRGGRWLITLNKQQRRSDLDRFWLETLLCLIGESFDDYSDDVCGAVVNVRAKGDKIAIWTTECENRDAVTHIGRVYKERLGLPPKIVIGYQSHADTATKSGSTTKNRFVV
Cytochrome P450 2D6, sequence (P10635 whole entry): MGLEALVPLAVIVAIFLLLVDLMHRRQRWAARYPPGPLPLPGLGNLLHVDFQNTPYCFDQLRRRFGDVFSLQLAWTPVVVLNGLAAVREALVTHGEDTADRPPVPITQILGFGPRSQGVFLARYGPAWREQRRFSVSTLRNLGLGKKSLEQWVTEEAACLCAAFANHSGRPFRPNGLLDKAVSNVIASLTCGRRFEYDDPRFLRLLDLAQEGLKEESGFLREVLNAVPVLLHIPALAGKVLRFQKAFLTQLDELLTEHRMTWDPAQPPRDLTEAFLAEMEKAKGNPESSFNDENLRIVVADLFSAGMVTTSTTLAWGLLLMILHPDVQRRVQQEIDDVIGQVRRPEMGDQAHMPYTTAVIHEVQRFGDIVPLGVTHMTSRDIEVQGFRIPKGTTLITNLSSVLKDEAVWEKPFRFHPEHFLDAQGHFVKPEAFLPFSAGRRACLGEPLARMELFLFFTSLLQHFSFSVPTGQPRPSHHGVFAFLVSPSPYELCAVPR

Structure (SMILES): COc1ccc2oc(=O)c(-c3csc(Nc4ccc(O)cc4)n3)cc2c1
- CC50 [1]: 38.5 µM (active)
- EC50 [2]: 7.11 µM (active)
- EC50 [3]: > 150 µM (not active)
- EC50 [4]: 13.8 µM (active)
- CC50 [5]: 13.3 µM (active)

Structure (SMILES): COc1cccc(/C=C2\SC(=S)N(CCC(=O)NC3C=CS(=O)(=O)C3)C2=O)c1 (centres undefined)
- CC50 [5]: 23.8 µM (active)

Structure (SMILES): Cc1cccc(-n2cnc(C(=O)NC3CCCCCC3)c2)n1
- IC50 [6]: > 64 µM (inactive)
- AC50 [7]: 11.2 µM (inconclusive)
- AC50 [8]: inconclusive

Structure (SMILES): COc1cccc(-c2nc(=S)c3c(o2)CCCC3)c1
- IC50 [9]: 24.9 µM (active)
- IC50 [10]: 8.32 µM (active)
- IC50 [11]: 20.5 µM (active)
- IC50 [12]: 27.4 µM (active)
- IC50 [13]: > 66 µM (inactive)
- IC50 [14]: > 66 µM (inactive)

Structure (SMILES): C#CCN1C(=O)S/C(=C\c2ccc(-c3ccc(Cl)c(C(=O)O)c3)o2)C1=O
- EC50 [2]: 2.41 µM (active)
- EC50 [4]: 5.9 µM (active)
- IC50 [9]: 29.6 µM (active)
- IC50 [10]: 7.59 µM (active)
- IC50 [11]: 11.6 µM (active)
- IC50 [12]: 14.9 µM (active)

Structure (SMILES): O=C(CCN1C(=O)C2C3C=CC(C3)C2C1=O)NCCN1CCCc2ccccc21 (centres undefined)
- AC50 [15]: 22.4 µM (inconclusive)
- AC50 [7]: 10 µM (inconclusive)
- AC50 [8]: inconclusive

Structure (SMILES): COc1ccc(C(=N)NOC(=O)C2CCCCC2)cc1
- IC50 [9]: 28.4 µM (active)
- IC50 [10]: 9.16 µM (active)
- IC50 [11]: 29.6 µM (active)
- IC50 [12]: 44.1 µM (active)

Structure (SMILES): Cc1cc(C(=O)Nc2ccc(N3CCCC3)c(Cl)c2)ccc1[N+](=O)[O-]
- IC50 [16]: 2.99 µM (not active)
- IC50 [9]: 28.2 µM (active)
- IC50 [10]: 5.48 µM (active)
- IC50 [11]: > 100 µM (inactive)
- IC50 [12]: > 100 µM (inactive)

Structure (SMILES): O=C1NC(=O)N(c2ccc(F)cc2)C(=O)/C1=C/c1ccc(N2CCOCC2)cc1
- IC50 [17]: > 100 µM (active)

Structure (SMILES): CCOC(=O)c1c(C)oc2c1cc(NS(=O)(=O)c1ccc(C(=O)O)cc1)c1ccccc12
- IC50 [17]: 73.8 µM (active)

Structure (SMILES): COc1ccc(NC(=O)Nc2ccc3c(c2)C(=O)N([C@H](C)CO)C[C@H](C)[C@H](CN(C)Cc2ccc(Cl)c(Cl)c2)OCCCC[C@@H](C)O3)cc1
- AC50 [18]: 7.11 µM (active)

Structure (SMILES): C[C@H](CO)N1C[C@H](C)[C@H](CN(C)Cc2ccc(C(=O)Nc3ccccc3N)cc2)Oc2ccc(NC(=O)Nc3ccc4c(c3)OCO4)cc2CC1=O
- AC50 [18]: 2.08 µM (active)

Structure (SMILES): C[C@@H]1CCCCO[C@@H](CN(C)CC2CCCCC2)[C@@H](C)CN([C@H](C)CO)C(=O)c2cc(NC(=O)Nc3ccccc3)ccc2O1
- AC50 [18]: 2.55 µM (active)

Structure (SMILES): O=[N+]([O-])c1ccc(O)c(/C=N/c2ccc3c(c2)OCO3)c1
- IC50 [17]: 41.9 µM (active)
